# Test results published in ChEMBL document CHEMBL4414576, “Recent advancements in mechanistic studies and structure activity relationship of FoF1 ATP synthase inhibitor as antimicrobial agent” (Eur J Med Chem, 2019).
# Assays:
# [1] = Inhibition of F1F0-ATP synthase in Escherichia coli
# Escherichia coli [2] = test: Inhibition of F1F0-ATP synthase in Escherichia coli relative to control; parameters: concentration or dose not given beside the values; conditions: concentration not given here
# Escherichia coli [3] = test: Inhibition of F1F0-ATP synthase in Escherichia coli after 60 mins relative to control; parameters: concentration or dose not given beside the values
# [4] = system: Mycobacterium tuberculosis; test: Antimicrobial activity against Mycobacterium tuberculosis H37Rv after 5 days; format: functional
# ATP synthase = test: Inhibition of ATP synthase in Mycobacterium tuberculosis H37Rv; format: protein-complex assay
# Escherichia coli [5] = test: Antimicrobial activity against Escherichia coli after 1 to 5 days by two-fold dilution; format: functional, organism-based
# Pseudomonas aeruginosa = test: Antimicrobial activity against Pseudomonas aeruginosa after 1 to 5 days by two-fold dilution; format: functional, organism-based
# Staphylococcus aureus [6] = test: Antimicrobial activity against Staphylococcus aureus after 1 to 5 days by two-fold dilution; format: functional, organism-based
# Bacillus subtilis = test: Antimicrobial activity against Bacillus subtilis after 1 to 5 days by two-fold dilution; format: functional, organism-based
# [7] = system: Mycolicibacterium smegmatis; test: Antimicrobial activity against Mycobacterium smegmatis after 1 to 5 days by two-fold dilution; format: functional, organism-based
# Staphylococcus aureus [8] = test: Antimicrobial activity against Staphylococcus aureus ATCC 29213; format: functional
# Streptococcus pneumoniae = test: Antimicrobial activity against Streptococcus pneumoniae ATCC 49619; format: functional
# [9] = Inhibition of F1F0-ATP synthase in Escherichia coli after 60 mins
# [10] = system: Mycobacterium tuberculosis H37Rv; test: Inhibition of F0F1-ATP synthase in Mycobacterium tuberculosis H37Rv at […] using succinate as substrate preincubated for 10 mins followed by substrate addition by luciferase reporter gene assay relative to control
# Mus musculus = species on record: Mus musculus; test: Inhibition of mitochondrial ATP synthase isolated from Swiss albino mouse liver at 100 uM using succinate as substrate after 1 hr relative to control
# [11] = Selectivity index, ratio of CC50 for human HepG2 cells to MIC of Mycobacterium tuberculosis H37Rv; format: toxicity
# [12] = Inhibition of ATP synthase in Mycobacterium smegmatis; parameters: species or system Mycolicibacterium smegmatis
# [13] = target: T1, ATP synthase (Mycobacterium tuberculosis) (UniProt P9WPU9+P9WPU5+P9WPU7+P9WPV5+P9WPS1+P9WPV1+P9WPV7+P9WPV3); test: Inhibition of ATP synthase in Mycobacterium tuberculosis H37Rv whole cell lysate after 18 hrs at 5X of MIC relative to control; format: subcellular
# [14] = system: Mycobacterium tuberculosis; test: Antimicrobial activity against Mycobacterium tuberculosis H37Rv; format: functional, organism-based
# [15] = Selectivity index, ratio of IC50 for ATP synthase in Mycobacterium tuberculosis H37Rv to IC50 for mitochondrial ATP synthase isolated from swiss albino mouse liver
# [16] = Selectivity index, ratio of CC50 for African green monkey Vero cells to IC50 of Mycobacterium tuberculosis H37Rv; format: toxicity; conditions: read-out: Ratio IC50
# [17] = Inhibition of ATP synthase isolates from rat brain cells using succinate as substrate preincubated for 5 mins followed by substrate addition
# [18] = target: T1, ATP synthase (Mycobacterium tuberculosis); test: Inhibition of ATP synthase in Mycobacterium tuberculosis H37Rv whole cell lysate after 18 hrs at 10X of MIC relative to control; format: subcellular
compound,measurement,setting,value
O=[N+]([O-])c1cc(O)ccc1/N=C/c1ccccc1O,IC50,[1],6 µM
same,inhibition,Escherichia coli [2],100%
O=c1c(-c2ccc(O)cc2)coc2cc(O)cc(O)c12,inhibition,Escherichia coli [3],40 to 60%
CCN(CC)Cc1cc(N(c2cc(C)nc3cc(Cl)ccc23)S(=O)(=O)c2ccc([N+](=O)[O-])cc2)ccc1O,MIC,[4],6.25 µg/mL
same,IC50,ATP synthase,360 to 1830 nM
O=c1c(O)c(-c2ccc(O)cc2)oc2cc(O)cc(O)c12,inhibition,Escherichia coli [3],40 to 60%
FC(F)(F)Oc1cccc(CNCCNC2C3CC4CC(C3)C2C4)c1 (centres undefined),MIC,Escherichia coli [5],6.25 µg/mL
same,MIC,Pseudomonas aeruginosa,12.5 µg/mL
same,MIC,Staphylococcus aureus [6],6.25 µg/mL
same,MIC,Bacillus subtilis,6.25 µg/mL
same,IC50,[7],20 µM
COc1ccc([C@@H]2CC(=O)c3c(O)cc(O[C@@H]4O[C@H](CO[C@@H]5O[C@@H](C)[C@H](O)[C@@H](O)[C@H]5O)[C@@H](O)[C@H](O)[C@H]4O)cc3O2)cc1O,inhibition,Escherichia coli [3],40 to 60%
COc1nc2ccc(Br)cc2cc1[C@H](c1ccccc1)[C@](O)(CCCCN(C)C)CCc1ccccc1,MIC,Staphylococcus aureus [8],2 µg/mL
same,MIC,Streptococcus pneumoniae,0.25 µg/mL
SILYMARIN,IC50,[9],110 µM
CCN(CC)Cc1cc(N(c2cc(C)nc3cc(Cl)ccc23)S(=O)(=O)c2ccc(Cl)s2)ccc1O,MIC,[4],6.25 µg/mL
same,IC50,ATP synthase,360 to 1830 nM
OC(COC(c1ccccc1)c1cccc2ccccc12)CN1CCN(C(c2ccccc2)c2ccccc2)CC1 (centres undefined),inhibition,[10],98%
OC(COC(c1ccccc1)c1cccc2ccccc12)CN1CCN(c2ccccc2)CC1 (centres undefined),inhibition,[10],91%
CC1(C)CC(=O)C(=CNc2ccccc2O)C(=O)C1,inhibition,Mus musculus,25%
same,selectivity ratio,[11],20
same,IC50,[12],4000 nM
same,inhibition,[13],15 to 30%
same,MIC,[14],2 µg/mL
same,Ratio IC50,[15],11.6
O=c1c(O)c(-c2ccccc2)oc2cc(O)cc(O)c12,inhibition,Escherichia coli [3],0 to 20%
Oc1cccc(/N=C/c2ccccc2O)c1,IC50,[1],5.25 µM
same,inhibition,Escherichia coli [2],85%
O=C(CNC1CCCC1)N(c1ccccc1)c1ccccc1,IC50,[14],10.4 µM
same,selectivity ratio,[16],24
CCN(CC)Cc1cc(N(c2cc(C)nc3cc(Cl)ccc23)S(=O)(=O)c2cccc(Cl)c2Cl)ccc1O,MIC,[4],3.12 µg/mL
same,IC50,ATP synthase,360 to 1830 nM
Oc1cccc(/C=N/c2cccc(O)c2)c1,IC50,[1],2.25 µM
same,inhibition,Escherichia coli [2],100%
COc1ccc(-c2cc(=O)c3c(O)cc(O[C@@H]4O[C@H](CO[C@@H]5O[C@@H](C)[C@H](O)[C@@H](O)[C@H]5O)[C@@H](O)[C@H](O)[C@H]4O)cc3o2)cc1O,inhibition,Escherichia coli [3],40 to 60%
Oc1ccc(/C=N/c2cccc(O)c2)cc1,IC50,[1],9 µM
same,inhibition,Escherichia coli [2],100%
O=c1c(O)c(-c2ccc(O)cc2O)oc2cc(O)cc(O)c12 [MORIN],IC50,[9],70 µM
same,inhibition,Escherichia coli [3],100%
COc1cccc(N2CCN(CC(O)COC(c3ccccc3)c3cccc4ccccc34)CC2)c1 (centres undefined),inhibition,[10],99%
Oc1cccc(/C=N/c2ccccc2O)c1,IC50,[1],9 µM
same,inhibition,Escherichia coli [2],85%
O=[N+]([O-])c1ccc(/N=C/c2ccccc2O)c(O)c1,IC50,[1],5 µM
same,inhibition,Escherichia coli [2],100%
CCN(CC)Cc1cc(N(c2cc(C)nc3cc(Cl)ccc23)S(=O)(=O)c2ccc(Cl)cc2Cl)ccc1O,MIC,[4],3.12 µg/mL
same,IC50,ATP synthase,360 to 1830 nM
COc1nc2ccc(Br)cc2cc1[C@H](c1cc(F)ccc1F)[C@](O)(CCCCN(C)C)c1ccccc1,MIC,Staphylococcus aureus [8],1 µg/mL
same,MIC,Streptococcus pneumoniae,0.25 µg/mL
COc1nc2ccc(Br)cc2cc1[C@H](c1ccccc1)[C@](O)(CCCCN1CCN(C)CC1)CCc1ccccc1,MIC,Staphylococcus aureus [8],1 µg/mL
same,MIC,Streptococcus pneumoniae,0.25 µg/mL
CC[C@H](C)[C@H](NC(=O)CN)C(=O)NCC(=O)N[C@@H](C)C(=O)N[C@H](C(=O)N[C@@H](CC(C)C)C(=O)N[C@@H](CCCCN)C(=O)N[C@H](C(=O)N[C@@H](CC(C)C)C(=O)N[C@H](C(=O)N[C@H](C(=O)NCC(=O)N[C@@H](CC(C)C)C(=O)N1CCC[C@H]1C(=O)N[C@@H](C)C(=O)N[C@@H](CC(C)C)C(=O)N[C@H](C(=O)N[C@@H](CO)C(=O)N[C@@H](Cc1c[nH]c2ccccc12)C(=O)N[C@H](C(=O)N[C@@H](CCCCN)C(=O)N[C@@H](CCCNC(=N)N)C(=O)N[C@@H](CCCCN)C(=O)N[C@@H](CCCNC(=N)N)C(=O)N[C@@H](CCC(N)=O)C(=O)N[C@@H](CCC(N)=O)C(N)=O)[C@@H](C)CC)[C@@H](C)CC)[C@@H](C)O)[C@@H](C)O)C(C)C)C(C)C,inhibition,Escherichia coli [2],78%
COc1cc(/C=C/C(=O)CC(=O)/C=C/c2ccc(O)c(OC)c2)ccc1O [CURCUMIN],IC50,[17],45 µM
C[C@H]1COc2c(N3CCN(C)CC3)c(F)cc3c(=O)c(C(=O)O)cn1c23.C[C@H]1COc2c(N3CCN(C)CC3)c(F)cc3c(=O)c(C(=O)O)cn1c23.O [LEVOFLOXACIN],MIC,Staphylococcus aureus [8],0.25 µg/mL
COc1ccc(/C=C2/S/C(=N/N=C/c3ccccc3O)NC2=O)cc1,inhibition,Mus musculus,32%
same,selectivity ratio,[11],80
same,IC50,[12],312 nM
same,inhibition,[18],15 to 30%
same,MIC,[14],0.5 µg/mL
same,Ratio IC50,[15],51
